Reference: ChEMBL document CHEMBL4177661, “Improvement in aqueous solubility achieved via small molecular changes” (Bioorg Med Chem Lett, 2017)
≈ marks a conversion by molar mass, not a printed value.

experiment: Solubility of the compound; format: physicochemical; conditions: not given

Point of comparison: `Oc1cccc2ccnnc12`, solubility 600 µg/mL (≈ 4110 µM). Against it:
- CCCCCCCC [OCTANE] — 600-fold lower, 1 µg/mL (≈ 8.75 µM)
- Oc1cccc2nccnc12 — 11-fold higher, 6600 µg/mL (≈ 45200 µM)
- C=CCCCCCC — 200-fold lower, 3 µg/mL (≈ 26.7 µM)
- c1ccc2cnccc2c1 [ISOQUINOLINE] — 9.4-fold higher, 5660 µg/mL (≈ 43800 µM)
- Oc1cccc2cncnc12 — 2.2-fold higher, 1300 µg/mL (≈ 8900 µM)
- C1CCCCCCC1 [CYCLOOCTANE] — 86-fold lower, 7 µg/mL (≈ 62.4 µM)

experiment: Dissociation constant, pKa of the compound; format: physicochemical; conditions: not given

Molecule `c1cnccn1` [PYRAZINE] has a pKa of 0.7.

experiment: Solubility of the compound at pH 7.4; format: physicochemical; conditions: buffer

Point of comparison: `O=C(Nc1ccc(-c2nnc(-c3ccccc3)o2)cc1)c1ccc(F)cc1`, solubility 5 µg/mL (≈ 13.9 µM). Against it:
- O=C(Nc1ccc(-c2nc(-c3ccccc3)no2)cc1)c1ccccc1 — within 1.5-fold, 6.12 µg/mL (≈ 17.9 µM)
- O=C(Nc1ccc(-c2nnc(-c3ccccc3)o2)cc1)c1ccccc1 — within 1.5-fold, 5.89 µg/mL (≈ 17.3 µM)
- O=C(Nc1ccc(-c2nc(-c3ccccc3)no2)cc1)c1ccc(F)cc1 — within 1.5-fold, 5.23 µg/mL (≈ 14.6 µM)

experiment: physchem; conditions: water
Description: Solubility of the compound in water at 35 degC

`CC(C)CCC[C@@H](C)[C@H]1CC[C@H]2[C@@H]3CC[C@H]4C[C@@H](O)CC[C@]4(C)[C@H]3CC[C@]12C` gave a solubility of 0.009 µg/mL (≈ 0.0232 µM).

experiment: physchem; conditions: octanol/water
Description: Lipophilicity, log P of the compound

Point of comparison: `C1CCCCCCC1` [CYCLOOCTANE], logP 4.07. Against it:
- c1cncnc1 [PYRIMIDINE] — lower, -0.44
- CCCCCCCC [OCTANE] — higher, 4.93
- c1ccc2c(c1)CCNC2 [1,2,3,4-TETRAHYDROISOQUINOLINE] — lower, 1.71
